Assay results reported in patent publication US20250154169A1, “COMPOUNDS AND METHODS FOR MODULATING SPLICING” (REMIX THERAPEUTICS INC., priority 2021, published 2025).
Counter-ions that a name gives are not always drawn.

Legend:
Format in all cases: cell-based, human
SMN2 mRNA = assay: Splicing RT-qPCR gene panel, SMN2 canonical junction (CJ) mRNA; settings: Homo sapiens, Tables 4A/4B, read-out: SMN2 (IC50, decrease in CJ mRNA, gene panel)
Method in brief: (§1)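 Cells (A673 in DMEM/10% FBS, K562 in IMDM/10% FBS) got compound for 24 h, top dose 10 uM, 11 points, 3-fold steps, DMSO ≤0.25%. Lysates went to RT-qPCR for the canonical exon-exon junction; ΔΔCt against housekeeper and DMSO gave RQ, then percentage response.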

Target C mRNA = assay: Splicing RT-qPCR gene panel, Target C canonical junction (CJ) mRNA; settings: Homo sapiens, Tables 4A/4B, read-out: Target C (IC50, decrease in CJ mRNA, gene panel)
Method in brief: as §1

HTT mRNA = assay: Splicing RT-qPCR gene panel, HTT canonical junction (CJ) mRNA; settings: Homo sapiens, Tables 4A/4B, read-out: HTT (IC50, decrease in CJ mRNA, gene panel)
Method in brief: as §1

Target C = assay: Protein abundance, HiBit-assay system (Promega), Target C; settings: Table 6; HiBiT-modified K562 cells, 24 hours
Protocol: Compounds described herein were used to screen for effects on quantitative protein abundance using a HiBit assay system (Promega). Quantitative protein abundance was determined by measuring the protein levels of HiBit-tagged protein targets expressed in cell culture via luminescence using the Nano-Glo HiBiT Lytic Detection System, which uses a split complementation assay format to reconstitute NanoBiT enzyme to generate a luminescent signal. A protein abundance assay was developed such that endogenous protein targets could be modified with the HiBiT peptide tag and their abundance could be assessed after compound treatment. Briefly, K562 cell lines containing a HiBiT-modification were treated with various compounds described herein (e.g., compounds of Formulas (I) or (II)). After treatment for 24 hours, the protein abundance of a specific target was determined by measuring luminescence.
Cells were maintained in EIDM with 10% FBS. Before the assay, cells were diluted with […] growth media (EIDM+1% FBS media) and were seeded in a 384-well plate at a density of 10000 cells/well (for each cell line listed in Table 5). Each compound was prepared as a 10-point 3-fold serial dilution in DMSO with the top dose at a final concentration of 10 μM in the well. Unmodified K562 cells were added at the previously specified density with DMSO to serve as an assay baseline and positive control (PC) and DMSO only with the respective modified cell lines was added to the negative control (NC) columns. Final DMSO concentration was kept at or below 0.25%. Treated cell plates were placed in an incubator at 37° C. with 5% CO2 for 24 hours. After 24 hours, 25 μL of Complete HiBit Lytic reagent was added to each well at room temperature (e.g. one plate requiring 10 mL Lytic Buffer, 100 μL LgBiT Protein, 200 μL Lytic Substrate), shaken for 5 minutes at 600 RPM, then left to sit for 10 minutes for signal to stabilize before reading on a Spark Cyto plate reader (Tecan) with a 500 ms measurement time.
To determine compound effects on protein abundance of each target in Table 6, the percent response for each respective cell line was calculated at each compound concentration as follows:
For the normalized response at each concentration, a four-parameter logistical regression was fit to the data and the response was interpolated at the 50% value to determine a concentration for protein abundance at […] the untreated control.

Row | SMILES | IC50 (SMN2 mRNA) | IC50 (Target C mRNA) | IC50 (HTT mRNA) | IC50 (Target C)
1 | Cc1cn2nc(NC(=O)c3ccc(C4CCNCC4)c4cc(C)oc34)cc(C)c2n1 [Compound 118] | 100 to 1000 nM | > 10000 nM | 1000 to 10000 nM | 1000 to 10000 nM
2 | Cc1cn2nc(NC(=O)c3ccc(C4CCNCC4)c4ccoc34)cc(C)c2n1 [Compound 119] | 100 to 1000 nM | > 10000 nM | 1000 to 10000 nM | > 10000 nM
3 | Cc1cn2cc(NC(=O)c3ccc(N4CCNCC4)c4nc(C)oc34)cc(F)c2n1 [Compound 140] | 100 to 1000 nM | 1000 to 10000 nM | 1000 to 10000 nM | 1000 to 10000 nM
4 | Cc1cn2cc(NC(=O)c3ccc(N4CCNCC4)c4oc(C)nc34)cc(F)c2n1 [Compound 141] | < 100 nM | 100 to 1000 nM | < 100 nM | 1000 to 10000 nM
5 | Cc1cn2cc(NC(=O)c3ccc(N4CCNCC4)c4cc(C)oc34)cc(F)c2n1 [Compound 142] | < 100 nM | 100 to 1000 nM | 1000 to 10000 nM | 1000 to 10000 nM
6 | Cc1cn2cc(NC(=O)c3ccc(N4CCNCC4)c4cn(C)nc34)cc(F)c2n1 [Compound 143, N-{8-fluoro-2-methylimidazo[1,2-a]pyridin-6-yl}-2-methyl-4-(piperazin-1-yl) indazole-7-carboxamide] | < 100 nM | 100 to 1000 nM | < 100 nM | < 100 nM
7 | Cc1cn2cc(NC(=O)c3ccc(C4CCNCC4)c4cc(C)oc34)cc(F)c2n1 [Compound 145] | < 100 nM | 100 to 1000 nM | 1000 to 10000 nM | 1000 to 10000 nM
8 | Cc1cn2nc(NC(=O)c3ccc(N4CCNCC4)c4cc(C)oc34)cc(C)c2n1 [Compound 148] | 100 to 1000 nM | 1000 to 10000 nM | 1000 to 10000 nM | 1000 to 10000 nM
9 | Cc1cn2cc(NC(=O)c3ccc(C4CCNCC4)c4ccoc34)cc(F)c2n1 [Compound 149] | < 100 nM | > 10000 nM | 1000 to 10000 nM | 1000 to 10000 nM
10 | Cc1cn2cc(NC(=O)c3ccc(N4CCN(C)CC4)c4cc(C)oc34)cc(F)c2n1 [Compound 189] | < 100 nM | 1000 to 10000 nM | 1000 to 10000 nM | 1000 to 10000 nM
11 | Cc1cn2cc(NC(=O)c3ccc(N4CCNC(C)C4)c4cc(C)oc34)cc(F)c2n1 (stereo not shown) [Compound 190] | 100 to 1000 nM | 1000 to 10000 nM | 100 to 1000 nM | 1000 to 10000 nM
12 | Cc1cn2cc(NC(=O)c3ccc(N4CCN(C)C(C)C4)c4cc(C)oc34)cc(F)c2n1 (stereo not shown) [Compound 191] | < 100 nM | 1000 to 10000 nM | 100 to 1000 nM | 1000 to 10000 nM
13 | CCC1CN(c2ccc(C(=O)Nc3cc(F)c4nc(C)cn4c3)c3oc(C)cc23)CCN1 (stereo not shown) [Compound 192] | < 100 nM | 1000 to 10000 nM | 1000 to 10000 nM | 1000 to 10000 nM
14 | Cc1cn2cc(NC(=O)c3ccc(N4CCNC(C)(C)C4)c4cc(C)oc34)cc(F)c2n1 [Compound 193] | < 100 nM | > 10000 nM | 1000 to 10000 nM | > 10000 nM
15 | Cc1cn2cc(NC(=O)c3ccc(N4CCNC5(CC5)C4)c4cc(C)oc34)cc(F)c2n1 [Compound 194] | < 100 nM | > 10000 nM | 1000 to 10000 nM | > 10000 nM
16 | Cc1cn2cc(NC(=O)c3ccc(N4CC(C)(C)NC(C)(C)C4)c4cc(C)oc34)cc(F)c2n1 [Compound 195] | < 100 nM | > 10000 nM | > 10000 nM | 1000 to 10000 nM

Row | SMILES | IC50 (SMN2 mRNA) | IC50 (Target C mRNA) | IC50 (HTT mRNA) | IC50 (Target C)
17 | CCn1cc2c(N3CC[C@@H](NC)C3)ccc(C(=O)Nc3cc(Cl)c4nc(C)cn4c3)c2n1 [Compound 556, N-{8-chloro-2-methylimidazo[1,2-a]pyridin-6-yl}-2-ethyl-4-[(3R)-3-(methylamino)pyrrolidin-1-yl]indazole-7-carboxamide] | – | – | – | 1000 to 10000 nM
18 | CCn1cc2c(N3CCC(N)(CC)CC3)cc(F)c(C(=O)Nc3cc(F)c4nc(C)cn4c3)c2n1 [Compound 557, 4-(4-amino-4-ethylpiperidin-1-yl)-2-ethyl-6-fluoro-N-{8-fluoro-2-methylimidazo[1,2-a]pyridin-6-yl}indazole-7-carboxamide] | – | – | – | 100 to 1000 nM
19 | CCn1cc2c(N3CCC(N[C@H]4C[C@@H](O)C4)CC3)ccc(C(=O)Nc3cc(F)c4nc(C)cn4c3)c2n1 [Compound 559, 2-ethyl-N-{8-fluoro-2-methylimidazo[1,2-a]pyridin-6-yl}-4-(4-{[(1s,3s)-3-hydroxycyclobutyl]amino}piperidin-1-yl) indazole-7-carboxamide] | – | – | – | 100 to 1000 nM
20 | CCn1cc2c(N3CCC(N[C@H]4C[C@H](O)C4)CC3)ccc(C(=O)Nc3cc(F)c4nc(C)cn4c3)c2n1 [Compound 560, 2-ethyl-N-{8-fluoro-2-methylimidazo[1,2-a]pyridin-6-yl}-4-(4-{[(1r,3r)-3-hydroxycyclobutyl]amino}piperidin-1-yl) indazole-7-carboxamide] | – | – | – | 1000 to 10000 nM
21 | Cc1cn2cc(NC(=O)c3ccc(N4CC[C@@H](N5CCNCC5)C4)c4cn(C)nc34)cc(F)c2n1 [Compound 562, N-{8-fluoro-2-methylimidazo[1,2-a]pyridin-6-yl}-2-methyl-4-[(3R)-3-(piperazin-1-yl)pyrrolidin-1-yl]indazole-7-carboxamide hydrochloride] | – | – | – | > 10000 nM
22 | Cc1cn2cc(NC(=O)c3ccc(N4CC5NC5C4)c4cn(C)nc34)cc(F)c2n1 (stereo not shown) [Compound 563, 4-{3,6-diazabicyclo[3.1.0]hexan-3-yl}-N-{8-fluoro-2-methylimidazo[1,2-a]pyridin-6-yl}-2-methylindazole-7-carboxamide] | – | – | – | 100 to 1000 nM
23 | Cc1cn2cc(NC(=O)c3ccc(N4C5CNCC54)c4cn(C)nc34)cc(F)c2n1 (stereo not shown) [Compound 564, 4-{3,6-diazabicyclo[3.1.0]hexan-6-yl}-N-{8-fluoro-2-methylimidazo[1,2-a]pyridin-6-yl}-2-methylindazole-7-carboxamide] | – | – | – | 100 to 1000 nM
24 | CCn1cc2c(N3CCNCC3)ccc(C(=O)Nc3cc(F)c4nc(C)c(F)n4c3)c2n1 [Compound 565, N-{3,8-difluoro-2-methylimidazo[1,2-a]pyridin-6-yl}-2-ethyl-4-(piperazin-1-yl) indazole-7-carboxamide; trifluoroacetic acid] | – | – | – | > 10000 nM
25 | CCn1cc2c(N3CCNCC3)ccc(C(=O)Nc3cn4cc(C)nc4c(Oc4ccccc4)n3)c2n1 [Compound 566, 2-ethyl-N-{2-methyl-8-phenoxyimidazo[1,2-a]pyrazin-6-yl}-4-(piperazin-1-yl) indazole-7-carboxamide] | – | – | – | 1000 to 10000 nM
26 | Cc1cn2cc(NC(=O)c3ccc(N4CC[C@@H](NC56CC(C5)C6)C4)c4cn(C)nc34)cc(F)c2n1 [Compound 568, 4-[(3R)-3-{bicyclo[1.1.1]pentan-1-ylamino}pyrrolidin-1-yl]-N-{8-fluoro-2-methylimidazo[1,2-a]pyridin-6-yl}-2-methylindazole-7-carboxamide] | – | – | – | 1000 to 10000 nM
27 | CCn1cc2c(N3CCC(NC4CC4)C3)cc(F)c(C(=O)Nc3cc(F)c4nc(C)cn4c3)c2n1 (stereo not shown) [Compound 569, 4-[3-(cyclopropylamino)pyrrolidin-1-yl]-2-ethyl-6-fluoro-N-{8-fluoro-2-methylimidazo[1,2-a]pyridin-6-yl}indazole-7-carboxamide] | – | – | – | 1000 to 10000 nM
28 | Cc1cn2cc(NC(=O)c3c(F)cc(N4CC[C@@H](NC5CC5)C4)c4cn(C)nc34)cc(F)c2n1 [Compound 571, 4-[(3R)-3-(cyclopropylamino)pyrrolidin-1-yl]-6-fluoro-N-{8-fluoro-2-methylimidazo[1,2-a]pyridin-6-yl}-2-methylindazole-7-carboxamide] | – | – | – | 1000 to 10000 nM
29 | Cc1cn2cc(NC(=O)c3ccc(N4CC[C@@H](NCc5cnc(Cl)nc5)C4)c4cn(C)nc34)cc(F)c2n1 [Compound 573, 4-[(3R)-3-{[(2-chloropyrimidin-5-yl)methyl]amino}pyrrolidin-1-yl]-N-{8-fluoro-2-methylimidazo[1,2-a]pyridin-6-yl}-2-methylindazole-7-carboxamide] | – | – | – | > 10000 nM
30 | Cc1cn2cc(NC(=O)c3ccc(N4CCC(C)(NC(C)C)C4)c4cn(C)nc34)cc(F)c2n1 (stereo not shown) [Compound 574] | – | – | – | > 10000 nM
31 | CCn1cc2c(N3CCNCC3)ccc(C(=O)Nc3cc(F)c4ncccc4c3)c2n1 [Compound 575] | – | – | – | > 10000 nM
